# In patent US20250161428A1, “PREVENTING/TREATING PSEUDOMONAS AERUGINOSA INFECTION” (priority 2022, published 2025):
# Where “and” joins values, the source holds several entries; their conditions need not be identical. Identical values can stand only once. Like-named read-outs stand apart in the source and are kept apart here.
# B1: 3B8: mouse IgM monoclonal antibody to the A-PS terminus; VH SEQ ID NO: 13, VL SEQ ID NO: 17 (antibody, V domains shown)
# VH: EIQLQQSGPELVKPGASVKVSCKASGYSFTDYNMYWVKQSHGKSLEWVGYIDPYNGGTTYNQKFKGKATLTVDKSSSTAFMHLNSLTSEDSAVYYCAKGGYRYDAWFAYWGQGTLVTVSA
# VL: DAVMTQTPLSLPVSLGDHASISCRSSQSLENNNGNTYLNWYLQKPGQSPQLLIYRVSNRFSGVLDRFSGSGSGTDFTLKISRVEAEDLGVYFCLQVTHVPWTFGGGTKLEIK
# What was measured:
# 1B1 IgM = assay: SPR binding of synthetic oligosaccharides to 1B1 IgM surface; design: species or system mouse; settings: for ka / kd / Obs Rmax (observed maximum binding response): two runs per oligosaccharide; for Obs Rmax (observed maximum binding response): high density 1B1 IgM surface, 25° C., HBS-EP
# Protocol: Various concentration ranges of synthetic oligosaccharides (see Experimental) were flowed over IgM 1B1 and an irrelevant IgM, Fn 4F1. Mcat lgt2/4: control oligosaccharide.
# Surface plasmon resonance (SPR): SPR binding assays were performed at 25° C. on a Biacore T200 instrument in HBS-EP running buffer (Cytiva Life Sciences, Mississauga, Canada), essentially as described previously. Briefly, approximately 13000 RUs of IgM (PA 1B1 and control Fn 4F1) were amine coupled to a CM7S sensor chip in 10 mM acetate buffer, pH 4.0 (Cytiva). Synthetic oligosaccharides were reconstituted in HBS-EP to 25 mM and a series of dilutions prepared for injection over IgM surfaces. The contact time was 60 s and the dissociation time 120 s (mono-, di-) or 180 s (tri-, tetra-, penta-). The following concentration ranges were injected: mono- (1 mM-62.5 μM), di- (200 μM-12.5 μM) and tri-, tetra- and penta- (10 μM-625 nM). Mcat lgt2/4 an oligosaccharide from Moraxella catarrhalis, served as a control and was injected at 10 μM. Surfaces were regenerated by extensive washing with HBS-EP. Reference flow cell subtracted sensorgrams were fit to a 1:1 binding model to determine binding kinetics and affinities, or affinities were determined by steady-state analysis.
# Synthetic carbohydrates ranging from a monosaccharide to pentasaccharide were flowed over high density surfaces of 1B1 IgM and an irrelevant IgM, Fn 4F1.
# mAb 1B1 = assay: mAb inhibition ELISA with synthetic oligosaccharides, mAb 1B1; assay type: binding, mouse; settings: P. aeruginosa PAO1 BAA-47 LPS or whole cell coated plates, 10 μg/ml mAb
# Text: FIGS. 15A, 15B, and 15C show inhibition ELISAs of mAbs 1B1 (FIG. 15A), 3C4 (FIG. 15B) and 3B8 (FIG. 15C) with LPS (left hand panels; square markers—P. aeruginosa PAO1 BAA-47, inverted triangle markers—P. aeruginosa (wzy::Gm)(Δpa5458), diamond markers—N. meningitidis galE/lpt3 and circular markers—PBS control) or synthetic oligosaccharides representing the terminal methylated rhamnan (right hand panels; solid circle markers—pentasaccharide, open square markers—tetrasaccharide, open circle markers—trisaccharide, inverted triangle markers—disaccharide, diamond markers—disaccharide with linker, triangle markers—L-monomer, solid square markers—D-monomer) against P. aeruginosa PAO1 BAA-47 LPS. Serial dilution, as shown on the x-axis, of either LPS or synthetic oligosaccharide was combined at an equal volume with 10 μg/ml mAb. After 1 h incubation, 100 μl of this inhibition mixture was added to PAO1 BAA-47 LPS coated plates. A secondary mAb specific for the primary mAb was added and absorbance was measured after a colour reagent was added. The absorbance obtained when the mAb is no longer inhibited by additional LPS or synthetic oligosaccharide is equal to inhibition by PBS.
# FIGS. 15D, 15E, and 15F show inhibition ELISAs of mAbs 1B1 (FIG. 15D), 3C4 (FIG. 15E) and 3B8 (FIG. 15F) with LPS (left hand panels; square markers—P. aeruginosa PAO1 BAA-47, inverted triangle markers—P. aeruginosa (wzy::Gm)(Δpa5458), diamond markers—N. meningitidis galE/lpt3 and circle markers—PBS control) or synthetic oligosaccharides representing the terminal methylated rhamnan (right hand panels; solid circle markers—pentasaccharide, open square markers—tetrasaccharide, open circle markers—trisaccharide, inverted triangle markers—disaccharide, diamond markers—disaccharide with linker, triangle markers—L-monomer, blue—D-monomer) against P. aeruginosa PAO1 BAA-47 whole cells. Serial dilution, as shown on the x-axis, of either LPS or synthetic oligosaccharide was combined at an equal volume with 10 μg/ml mAb. After 1 h incubation, 100 μl of this inhibition mixture was added to PAO1 BAA-47 whole cell coated plates. A secondary mAb specific for primary the mAb was added and absorbance measured after a colour reagent was added. Absorbance obtained when the mAb is no longer inhibited by additional LPS or synthetic oligosaccharide is equal to inhibition by PBS.
# mAb inhibition ELISA: Wells of Nunc Maxisorp EIA plates were coated with either 1 μg of P. aeruginosa LPS in PBS overnight at 4° C. or P. aeruginosa killed whole cells in dH2O in a drying oven overnight, and then brought to RT before use. Plates were blocked with 1% BSA-PBS for 1 h at RT, and then wells were washed with PBS-T. During the blocking step, the inhibition was set-up. Either LPS or a synthetic oligosaccharide was added to a tube at either 1 mg/ml or 3 mg/ml and then a serial dilution with 1% BSA-PBS was performed, before an equal volume of mAb (1B1, 3B8 or 3C4) was added at a constant concentration of 10 μg/ml in 1% BSA-PBS, this mixture was incubated for 1 h at RT. Following washing of the EIA plate with PBS-T, 100 μl from the mixed tubes was added to the plate and allowed to incubate for 1 h at RT for LPS coated plates, or 3 h at RT for killed whole cell coated plates. Following washing with PBS-T, the appropriate AP-labeled goat anti-mouse Ig (Southern Biotech) specific for the mAb used, diluted 1:250 in 1% BSA-PBS, was added for 1 h at RT. The plates were then washed with PBS-T and developed with Phosphatase Substrate System (Kirkegaard and Perry Laboratories). After 60 min, absorbance was measured at 405 nm using a microtiter plate reader. […]
# purified PAO1 LPS = assay: mAb competition ELISA; assay type: binding, P. aeruginosa; settings: PAO1 LPS coated plates; 3C4 at 62.5 μg/ml
# Protocol: (§1) The plate was washed and mAb 3C4 was added at a constant concentration (62.5 μg/ml). A secondary mAb specific for mAb 3C4 was added and absorbance was measured after a colour reagent was added (line with square markers). The absorbance obtained when 3C4 was added to the plate without 1B1 competition is shown by the line with a triangle marker.
# as §1, with “to” for “to the”, “3B8” for “1B1”
# mAb competition ELISA: Wells of Nunc Maxisorp EIA plates were coated with 1 μg of P. aeruginosa LPS in PBS overnight at 4° C. and then brought to RT before use. Plates were blocked with 1% BSA-PBS for 1 h at RT, and then wells were washed with PBS-T. One mAb (1B1 or 3B8) was titrated and added to the plate for 1 h at RT. Following washing with PBS-T, the second mAb (3C4) was added at a pre-determined concentration and allowed to incubate for 1 h at RT. Following washing with PBS-T, AP-labeled goat anti-mouse IgG2b (Southern Biotech) specific for mAb 3C4, diluted 1:250 in 1% BSA-PBS was added for 1 h at RT. The plates were then washed with PBS-T and developed with Phosphatase Substrate System (Kirkegaard and Perry Laboratories). After 60 min absorbance was measured at 405 nm using a microtiter plate reader.
# [1] = tested on: killed whole cells of P. aeruginosa strains; assay: ELISA binding of mAbs to killed whole cells; settings: summary statement, serotype strains and clinical isolates
# Protocol: FIGS. 11A, 11B, and 11C show ELISA analysis of binding of 1B1 (FIG. 11A), 3B8 (FIG. 11B), and 3C4 (FIG. 11C) purified monoclonal antibodies (mAbs) (all at 100 μg/ml) to killed whole cells of P. aeruginosa strains NRCC #'s 6678, 6668-70, 6954-60 and negative control strains M. catarrhalis 6541 and N. meningitidis 6263 (see Table 1 for full details of strains).
# ELISA: The binding of anti-P. aeruginosa A-band terminal epitope mAbs and polyclonal sera to BSA conjugates, purified LPS and to whole cells was evaluated by ELISA as described previously.
# [2] = 1:1 binding model, table: two runs, text: one value per oligosaccharide, read-out: KD
# [3] = 1:1 binding model, listed as Tri-
molecule,measurement,setting,value
"CO[C@@H]1[C@H](O)[C@@H](O[C@H]2[C@H](OC)[C@H](O)[C@@H](O[C@H]3[C@H](OC)[C@H](O)[C@@H](O[C@H]4[C@H](OC)[C@H](O)[C@@H](O[C@H]5[C@H](OC)[C@H](O)[C@@H](O)O[C@@H]5C)O[C@@H]4C)O[C@@H]3C)O[C@@H]2C)O[C@H](C)[C@H]1O [pentasaccharide, 3-O-methyl-α-D-rhamnopyranoside-(1→4)-3-O-methyl-α-D-rhamnopyranoside-(1→4)-3-O-methyl-α-D-rhamnopyranoside-(1→4)-3-O-methyl-α-D-rhamnopyranoside-(1→4)-3-O-methyl-α-D-rhamnopyranose]",Kd,"1B1 IgM; 1:1 binding model, table: two runs, text: one value per oligosaccharide, listed as Penta-, read-out: KD",0.54 µM
same,Kd,1B1 IgM; [2],0.55 µM
same,ka,1B1 IgM; 1:1 binding model,3430 s⁻¹ and 5430 s⁻¹
same,kd,1B1 IgM; 1:1 binding model,0.00186 M⁻¹ s⁻¹ and 0.0019 M⁻¹ s⁻¹
same,Obs Rmax (observed maximum binding response),1B1 IgM,34
same,inhibition of binding of mAb 1B1 to its target LPS and killed whole cells,mAb 1B1,effectively equivalent in inhibiting
"CO[C@@H]1[C@H](O)[C@@H](O[C@H]2[C@H](OC)[C@H](O)[C@@H](O[C@H]3[C@H](OC)[C@H](O)[C@@H](O[C@H]4[C@H](OC)[C@H](O)[C@@H](O)O[C@@H]4C)O[C@@H]3C)O[C@@H]2C)O[C@H](C)[C@H]1O [tetrasaccharide, 3-O-methyl-α-D-rhamnopyranoside-(1→4)-3-O-methyl-α-D-rhamnopyranoside-(1→4)-3-O-methyl-α-D-rhamnopyranoside-(1→4)-3-O-methyl-α-D-rhamnopyranose]",Kd,"1B1 IgM; 1:1 binding model, table: two runs, text: one value per oligosaccharide, listed as Tetra-, read-out: KD",0.65 µM
same,Kd,1B1 IgM; [2],0.66 µM
same,ka,1B1 IgM; 1:1 binding model,5690 s⁻¹ and 5260 s⁻¹
same,kd,1B1 IgM; 1:1 binding model,0.00372 M⁻¹ s⁻¹ and 0.00348 M⁻¹ s⁻¹
same,Obs Rmax (observed maximum binding response),1B1 IgM,28 and 29
same,inhibition of binding of mAb 1B1 to its target LPS and killed whole cells,mAb 1B1,effectively equivalent in inhibiting
"CO[C@@H]1[C@H](O)[C@@H](O[C@H]2[C@H](OC)[C@H](O)C(O)O[C@@H]2C)O[C@H](C)[C@H]1O (stereo partly drawn) [disaccharide, 3-O-Methyl-α-D-rhamnopyranoside-(1→4)-3-O-methyl-D-rhamnopyranose]",Obs Rmax (observed maximum binding response),1B1 IgM; listed as Di-,14 and 15
same,Kd,"1B1 IgM; steady-state analysis, listed as Di-, read-out: KD, steady state affinity",85.8 µM and 82.5 µM
same,Kd,"1B1 IgM; steady-state analysis, read-out: KD, steady state affinity",84 µM
same,inhibition of binding of mAb 1B1 to its target LPS and killed whole cells,mAb 1B1,some evidence of inhibition
"CO[C@@H]([C@H](O)[C@@H](C)O)[C@H](O)C=O [D-monosaccharide, 3-O-Methyl-D-rhamnose]",inhibition of binding of mAb 1B1 to its target LPS and killed whole cells,mAb 1B1,some evidence of inhibition
"CO[C@@H]1[C@H](O)[C@@H](O[C@H]2[C@H](OC)[C@H](O)[C@@H](O[C@H]3[C@H](OC)[C@H](O)[C@@H](O)O[C@@H]3C)O[C@@H]2C)O[C@H](C)[C@H]1O [trisaccharide, 3-O-methyl-α-D-rhamnopyranoside-(1→4)-3-O-methyl-α-D-rhamnopyranoside-(1→4)-3-O-methyl-α-D-rhamnopyranose]",Kd,"1B1 IgM; 1:1 binding model, table: two runs, text: one value per oligosaccharide, listed as Tri-, read-out: KD",1.37 µM and 1.46 µM
same,Kd,1B1 IgM; [2],1.42 µM
same,ka,1B1 IgM; [3],12800 s⁻¹ and 12300 s⁻¹
same,kd,1B1 IgM; [3],0.0176 M⁻¹ s⁻¹ and 0.0179 M⁻¹ s⁻¹
same,Obs Rmax (observed maximum binding response),1B1 IgM,21
same,inhibition of binding of mAb 1B1 to its target LPS and killed whole cells,mAb 1B1,effectively equivalent in inhibiting
same,inhibition of binding of mAb 1B1 to its target LPS and killed whole cells,mAb 1B1; listed as 3-O-methyl rhamnan trisaccharide,effectively inhibited
"CO[C@@H]1[C@@H](O)[C@H](C)OC(O)[C@@H]1O (stereo partly drawn) [L-monosaccharide, 3-O-Methyl-L-rhamnopyranose]",inhibition of binding of mAb 1B1 to its target LPS and killed whole cells,mAb 1B1,completely ineffective in inhibition
B1,epitope relation in competition ELISA with mAb 3C4,purified PAO1 LPS,recognised similar overlapping epitopes
same,range of P. aeruginosa strains recognised,[1],recognition restricted to the wt serotype 5 strains PAO1 BAA-47 and 5937
